Key:
[1] = molecular target: T1, S1D 3CL^pro (Severe acute respiratory syndrome coronavirus 2, UniProt P0DTD1, S3264D); assay type: binding, SARS‐CoV‐2
[2] = molecular target: T1, S1D 3CL^pro; assay type: biochemical, SARS‐CoV‐2
[3] = molecular target: DM (S1D + A191E) 3CL^pro (Severe acute respiratory syndrome coronavirus 2, UniProt P0DTD1, A3454E/S3264D); assay type: binding, SARS‐CoV‐2
[4] = molecular target: A191E 3CL^pro (Severe acute respiratory syndrome coronavirus 2, UniProt P0DTD1, A3454E); assay type: biochemical, SARS‐CoV‐2
[5] = molecular target: S1D + A191E 3CL^pro (double mutant, DM) (Severe acute respiratory syndrome coronavirus 2, UniProt P0DTD1, A3454E/S3264D); assay type: biochemical, SARS‐CoV‐2
[6] = system: E166V mutation of 3CL^pro; conditions: cited from earlier work
[7] = system: E166V 3CL^pro; conditions: cited from earlier work

Compound: COc1cccc2[nH]c(C(=O)N[C@@H](CC(C)C)C(=O)N[C@@H](C[C@@H]3CCNC3=O)C(=O)COP(=O)(O)O)cc12 [lufotrelvir]
- effect of inhibitor on monomer/dimer peaks [1]: eliminated the monomeric peaks
- K D [2]: 290 ± 30 nM
- K D f c [2]: 6000 ± 700 nM
- K D/f c [2]: 13 ± 2 nM
- f c [2]: 21 ± 1
- inhibitor concentration at which the mutant is more active than the WT [2]: greater than 10 nM
- inhibitor concentration for full inhibition [2]: exceeded 1 μM
- reduction in affinity (K i) compared to the WT [2]: 3.3 fold
- effect of inhibitor on monomer/dimer peaks [3]: eliminated the monomeric peaks
- reduction in affinity (K i) compared to the WT [4]: 6.4 fold
- K D [5]: 140 ± 10 nM
- K D f c [5]: 2300 ± 300 nM
- K D/f c [5]: 9 ± 1 nM
- f c [5]: 16 ± 1
- inhibitor concentration at which the mutant is more active than the WT [5]: ≥ 10 nM
- reduction in affinity for the dimer (K i) compared to the WT [5]: 26 fold

Compound: CC(C)(C)[C@H](NC(=O)C(F)(F)F)C(=O)N1C[C@H]2[C@@H]([C@H]1C(=O)N[C@H](C#N)C[C@@H]1CCNC1=O)C2(C)C [nirmatrelvir]
- increase in EC50 [6]: up to 255 fold
- increase in K i [7]: more than 7000 fold

Source: publication PMC12375981 (Protein Science : A Publication of the Protein Society, 2025)
